Laboratory results reported in a melting point compilation (Tetko et al.; mined from patent text by program, amines drawn as free bases though some values may be those of a salt).

| melting point | SMILES |
| --- | --- |
| 122 °C | Cc1cc(NC(=O)OC(C)(C)C)c(N)cc1-c1ccccc1 |
| 156 to 157 °C | CCCC(=O)N(Cc1ccc(-c2ccccc2-c2nc(=O)o[nH]2)cc1)c1sc(C)cc1C(=O)OC |
| 168 to 171 °C | Cn1cc(-c2ccccc2)c(=O)c(-c2ccccc2C(F)(F)F)c1 |
| 160 to 162 °C | CCC12C=C(C(=O)OC)n3c4c(c5ccccc53)CCN(CCC1)C42 (configuration not stated) |
| 128 to 130 °C | Cc1cccc(C(=O)NCN2CCN(c3ncccc3C#N)CC2)c1 |
| 107 to 108 °C | CN1CCC(c2c(O)cc(O)c3c(=O)cc(-c4ccccc4Cl)oc23)C1CC#N (configuration not stated) |
| 235 to 238 °C | CCOC(=O)C=Cc1c[nH]c2cnc(-n3cncn3)cc12 |
| 195 to 196 °C | CCOc1cc(Oc2ccc(S(C)(=O)=O)nc2)cc2cc(C3=NCC(CC(N)=O)S3)[nH]c12 (configuration not stated) |
| 145 to 147 °C | c1ccc(-c2ccc3[nH]c4ccc(-c5ccccc5)cc4c3c2)cc1 |
| 134 to 136 °C | CSCc1ccc2ncnc(Nc3cccc(C)c3)c2c1 |
| 173 to 175 °C | Nc1nnc(OCc2ccccc2)s1 |
| 219 to 220 °C | CCOC(=O)Nc1ccc2sc(C)cc(=O)c2c1 |
| 185 to 186 °C | Cc1oc(-c2ccccc2)nc1CCC(=NO)c1ccc(CCCC2OC(=O)NC2=O)cc1 (configuration not stated) |
| 114 to 116 °C | COc1ccc(C=CC(=O)N2CC(CCl)c3c2cc(N)c2ccccc32)cc1 (configuration not stated) |
| 196 to 198 °C | N#Cc1cnn2c1N(C(=O)CCl)CC=C2c1cccc(Cl)c1 |
| 106 to 117 °C | Clc1cc2c(nc1-c1ccccc1Br)OCC2 |
| 137 to 138 °C | CN(C)C=Cc1ccc(-c2csc(-c3ccc(F)cc3)n2)cc1[N+](=O)[O-] |
| 112 to 113 °C | COc1ccc2sc(=O)n(C(C)=O)c2c1 |
| 92 to 96 °C | CCCCn1nc(C)c(C(=O)O)c1Cc1ccc(-c2ccccc2S(=O)(=O)NC(=O)OC(C)(C)C)cc1 |
| 211 to 215 °C | Cc1ccc2[nH]c(-c3ccccc3O)cc2c1 |
| 87 to 90 °C | COc1ccc(COc2ccccc2Br)cc1 |
| 138 to 146 °C | Fc1ccc2c(-c3ccncc3)noc2c1 |
| 129 to 131 °C | C=CCOc1ccccc1C1C(C(=O)OCC)=C(C)NC(C=O)=C1C(=O)OCC (configuration not stated) |
| 167 to 169 °C | CC(C)n1c(CO)c(-c2ccc(F)cc2)c(-c2ccccc2)c1C(=O)NCCc1cccnc1 |
| 74.5 to 75 °C | N#Cc1cccc2c1CCc1ccsc1-2 |
| 218 to 220 °C | CCOC(=O)c1c(-c2ccccc2)n(C)n(-c2ccc(C#N)cc2)c1=O |

| melting point | SMILES |
| --- | --- |
| 106 to 108 °C | CC(C)c1cc(C(=O)Nc2ccc(C(=O)O)nc2)oc1C(C)C |
| 233 to 236 °C | Oc1ccc2c(c1)COc1c-2cc2ccc(O)cc2c1-c1cccs1 |
| > 140 °C | Cc1nc(-c2cccc(NC(=O)N3CCc4c(cnc5[nH]ncc45)C3)c2)no1 |
| 87 to 93 °C | CN(C)CCCNC(=O)c1ccc(-c2nnc(CSCCCCOc3ccccc3)o2)cc1 |
| 131 °C | OCc1cccc2nc(-c3ccccc3)oc12 |
| 259 to 263 °C | CCOc1cc2c(Nc3ccc(OC)cc3)c(C(=O)O)cnc2nc1C |
| 78 to 81 °C | Cn1nnnc1SCc1ccccn1 |
| 140 to 141 °C | NC(=S)NNC(=O)CCCCc1ccccc1 |
| 146 to 148 °C | Cn1ccnc1C1(CCCCc2ccc(NC(=O)c3ccccc3)cc2)c2ccccc2-c2ccccc21 |
| 215 to 217 °C | Cc1nc2c(N)nc3ccccc3c2n1OCc1ccccc1[N+](=O)[O-] |
| 165 to 166 °C | C(=C\c1nc(COc2ccc(CCn3ccnc3)cc2)co1)/c1ccccc1 |
| 128 to 129 °C | O=[N+]([O-])c1ccc(-n2cccn2)c(F)c1 |
| 211 to 212 °C | CSc1ccc(-c2coc3ccc(-c4nnc(O)o4)cc23)cc1 |
| 201 to 203 °C | O=C(O)CCn1[nH]c(=O)c2ccccc2c1=O |
| 87.3 to 89.3 °C | O=[N+]([O-])c1ccc(Oc2cccc3ccccc23)nc1 |
| 140 to 141 °C | COC(=O)c1ccc(NC(C)=O)c(I)c1 |
| 211 to 213 °C | Oc1ccc2c(c1)CCNC21CCSCC1 |
| 40 to 41 °C | CCCCC(=O)c1ccc(Cl)c(Cl)c1 |
| 138 to 140 °C | C=CCN1CC(c2ccc(NC(=O)OCc3ccccc3)cc2F)CCS1(=O)=O (configuration not stated) |
| 85 to 89 °C | Nc1cccc2c1COC2 |
| 132 °C | C#CCn1c(Sc2ccccc2)c(CC)c(=O)[nH]c1=O |
| 68 °C | COC(=O)Cc1ccc(OCC(C)NCC(O)c2cccc(Cl)c2)c(O)c1 (configuration not stated) |
| 199 to 200 °C | CN1CCN(C2=Nc3cc(Cl)cc4c3N(CC4)c3ccccc32)CC1 |
| 74 to 75.5 °C | CCSc1c2ccccc2c(C=O)c2ccccc12 |
| 140 to 142 °C | O=C(Nc1ccccc1)C1C(=O)Sc2ccccc21 (configuration not stated) |
| 295 to 297 °C | Cc1nc2cccc(N)c2c(=O)n1[C@@]1(C)CCC(=O)NC1=O |

Further lines, the compound ahead of its results:

| SMILES | melting point |
| --- | --- |
| CC(C)(C)N1CC(=O)Nc2ccc(Br)cc2C1=O | 205 to 208 °C |
| CC(=O)OCC1OC(OC(C)=O)C(N=[N+]=[N-])C(OC(C)=O)C1OC(C)=O (configuration not stated) | 131 to 132 °C |
| OC(c1ccc2c(c1)OCCN2)(C(F)(F)F)C(F)(F)F | 119 to 120 °C |
| CN1Cc2c(Cl)ncn2-c2ccccc2C1=S | 198 °C |
| C=C(C)COc1c(C)c(CCC(O)CC(=O)CC(=O)OCC)c2c(c1C)CC(C)(C)O2 (configuration not stated) | 53.5 to 55 °C |
| Cc1c(Cl)cccc1NC(=O)C(C)(C)C | 113 to 114 °C |
| CC(C=O)=CC=CC(C)=CCO | 42 to 45 °C |
| CC(=NO)c1nccc(OCC(F)(F)F)n1 | 179 to 181 °C |
| COCCCNC1(c2ccccc2Cl)C(=O)N(S(=O)(=O)c2ccc3c(c2)CCN3C(=O)OC)c2ccc(Cl)cc21 (configuration not stated) | 98 °C |
| CC1CC(c2c[nH]c(-c3ccc(F)cc3)c2-c2ccncc2)=CCN1C (configuration not stated) | 198 to 201 °C |
| CC(C)(C)OC(=O)NCCc1ccc([N+](=O)[O-])cc1 | 94 to 95 °C |
| CC(C)(c1cc(F)ccc1O)c1cc(F)ccc1O | 155 °C |
| CCC(CC)c1nc(-c2ccncc2)c(-c2ccc(Cl)cc2)n1CC | 239 to 242 °C |
| O=S(=O)(c1ccc(C(F)(F)F)cc1)N1CCCC1c1ccc(F)cc1 (racemic) | 85 °C |
| O=C1c2ccc(-c3nnn[nH]3)cc2C(=O)c2cc(N3CCCCC3)ccc21 | 297 to 298 °C |
| O=C(O)COc1c(Cl)cc(Cl)cc1Cl | 180 to 183 °C |
| O=C(NC(Nc1c(Nc2cccnc2)c(=O)c1=O)C(F)(F)C(F)(F)F)c1cccc(Cl)c1 (configuration not stated) | 212 to 213 °C |
| CCC(Cc1ccc(OCCN2CCCCC2)cc1)(C(=O)NO)S(=O)(=O)c1ccc(OC)cc1 (configuration not stated) | 75 °C |
| CCCn1c(=O)c2nc(-c3cccc(/C=C/C(=O)O)c3)[nH]c2n(CC2CCCCC2)c1=O | > 350 °C |
| CN(C(=O)N1CCN(C[C@@]2(C)Cn3cc([N+](=O)[O-])nc3O2)CC1)c1ccc(C(F)(F)F)cc1 | 100 to 102 °C |
| O=C1N(c2cc(Cl)cc(Cl)c2)C(=O)C2(Cc3ccc(-c4cccnc4)cc3)CCCCN12 (configuration not stated) | 276 °C |
| COc1cc2c(cc1-c1cccnc1)-c1c(-c3cncs3)c3c(n1CC2)C(=O)N(C(C)(C)C)CCCOC3 | 200 to 201 °C |
| CC1(C)Oc2ccc(-c3c(NCCO)c(=O)c3=O)cc2[C@@H](N2Cc3ccccc3C2=O)[C@@H]1O (relative stereo) | 205 to 215 °C |
| Cc1nnc2n1-c1sc(Cl)cc1C(c1ccccc1[N+](=O)[O-])=NC2 | 210 to 212 °C |
| C=C(C)C(=O)OCc1c(Br)c(Br)c(Br)c(Br)c1COC(=O)C(=C)C | 64 to 66 °C |

| SMILES | melting point |
| --- | --- |
| CCOC(=O)c1nc2sc(C(=O)OCC)c(C)c2c(=O)[nH]1 | 237 to 238 °C |
| COC(=O)C[C@]1(C(=O)OC)CC(c2ccc(OC)c(OC3CCCC3)c2)=NO1 | 92 to 93 °C |
| C#CCCCCn1ncc2c(N)c(C(=O)OCC)c(C)nc21 | 63 to 65 °C |
| CCOC(=O)C(C)(C)Oc1cc2c(cc1C)OC1(CC(C)(C)c3cc(O)c(C)cc3O1)CC2(C)C (single isomer, unassigned; (-)) | 165 to 166 °C |
| Cc1cc(N)c(Br)c(C)c1C | 69 °C |
| C=CC1(N)CN=C(c2ccc(Cl)c(N(C)C)c2F)N=C1C(=O)OC (configuration not stated) | 136 to 137 °C |
| CC(C)(C)CC(=O)Nc1ccc2oc3c(c2c1)CCCCCC3 | 157 to 158 °C |
| C[Si]1(C)CCCCCC[Si](C)(C)O[Si](C)(C)CCCCCC[Si](C)(C)O1 | 48 to 50 °C |
| CC1NC(=O)NN=C1c1ccc(Cl)cc1 (configuration not stated) | 221 to 222 °C |
| COc1ccc2c(c1)CC(NC(C)=O)CC2 (configuration not stated) | 105 to 108 °C |
| COc1ccc(S(=O)(=O)N2CCC[C@H]2C(=O)N2CCN(C(=O)c3ccc(C=NN)cc3)CC2)c(OC)c1COc1cccc2c(C)cc(C)nc12 | 136 °C |
| N#CSCC(I)=C(I)CBr | 84 to 86 °C |
| COc1cc(C(=O)N2CCC(CCN3CCC(Nc4nc5ccccc5n4Cc4ccccn4)CC3)(c3ccc(F)cc3)C2)cc(OC)c1OC (configuration not stated) | 110 to 119 °C |
| Nc1c(Cl)ccc2c1C=C(C(=O)O)C(C(F)(F)F)O2 (configuration not stated) | 208 to 210 °C |
| CCCCCCCCCCCCOc1ccc(C(=O)OC)cc1 | 56 to 57 °C |
| Cc1cccc(C)c1NC(=O)/C=C1\SC(C)C(=O)N1C (configuration not stated) | 220 to 222 °C |
| CCCc1nc2c(N)nc(C)c(C)c2n1CCCC(N)=O | 226 to 228 °C |
| CCC1CC(=O)N(Cc2ccc(NS(C)(=O)=O)cc2)N=C1c1ccc(OC)c(OC)c1 (configuration not stated) | 81 °C |
| CCC(=O)Cc1ccc(C(=O)Nc2ccc3cc(CN4CCCC4)cnc3c2C)cc1 | 157 °C |
| CSc1ccc(-c2nc(O)c(C(=O)Nc3ccc(C)cc3)c(SC)n2)cc1 | 302 to 305 °C |
| COC(=O)c1cccc(OC)c1S(=O)(=O)Cl | 106 to 108 °C |
| Cc1ccc2c(c1)C=Cc1cc(C)ccc1C2c1cn(Cc2nc(C(=O)Nc3nc(CC(=O)O)cs3)cs2)c(=O)[nH]c1=S | 200 to 205 °C |
| Cc1cc(C=C2SC(=S)NC2=O)cc(C(C)(C)C)c1O | 210 to 216 °C |
| COc1cc(-c2nc(NC(C)(C)C)c3c(C)c(C#N)sc3n2)cc(OC)c1OC | 195 to 197 °C |
| COc1c(Cl)ccc(C2=NC(C)(C)CO2)c1SC | 50 to 52 °C |
